Data taken from patent US11504368B2, “2,6-diamino-3,4-dihydropyrimidin-4-one derivatives and use thereof in therapy” (THOMAS HELLEDAYS STIFTELSE FÖR MEDICINSK FORSKNING, priority 2018, dated 2022).

How the values were obtained:
[1] = tested on: HL-60 cells; test: Cancer cell viability assay (HL-60, resazurin); format: cell-based; details: Homo sapiens, 96 h, mean of at least 3 independent measurements, read-out: HL60 cell proliferation inhibition EC50
Procedure: HL-60 cells (human promyelocytic leukemia cells) were seeded in a 384-well plate at a density of 2,000 cells per well in 50 μL induction medium and treated with vehicle (DMSO) or an 11-point concentration range with 3-fold dilution in concentration of compound. Each assay point was run in duplicate. Wells without cells but with DMSO were used as negative controls. The cells were left to proliferate over a period of 96 h, in an incubator at 37° C. and 5% CO2, followed by an addition of 10 μL […] resazurin sodium salt (199303, Sigma-Aldrich) dissolved in DPBS (14190, Gibco). After 4 h of incubation at 37° C. and 5% CO2, the fluorescent signal was measured using an excitation wavelength of 544 nm and an emission wavelength of 595 nm in a Hidex Sense plate reader. Cell plates were incubated in boxes with damp paper tissues to avoid evaporation. All additions, except compound and DMSO, were done using the Multidrop Combi (Thermo Fisher Scientific). DMSO and compounds were pre-dispensed with an Echo 550 Liquid handler (Labcyte) in black, clear bottom, TC-treated and sterile 384-well plates (3764, Corning). Growth medium consisted of RPMI 1640 GlutaMAX (61870, Gibco), 10% (v/v) FBS (10500, Gibco), and 1% (v/v) P/S (15070, Gibco). Induction medium consisted of RPMI 1640 GlutaMAX (61870, Gibco), 5% (v/v) FBS (10500, Gibco), and 1% (v/v) P/S (15070, Gibco). EC50 values were determined by fitting a four parameter sigmoidal curve model using XLfit (IDBS). Reported EC50 values are the mean of at least 3 independent measurements.

[2] = target: T1, MTHFD2 (Homo sapiens (Human), UniProt P13995); test: Inhibition of MTHFD2 (NAD(P)H-Glo luminescence); format: biochemical; details: 3.4 nmol/L MTHFD2, 5 μmol/L folitixorin, 250 μmol/L NAD+; mean of at least 3 independent measurements
Procedure: DMSO was used as negative control. The serial dilution in DMSO, from compound DMSO stock solution, was created by dispensing from a 384-well low dead volume microplate (LP-0200, Labcyte) and a 384-well polypropylene microplate 2.0 (PP-0200, Labcyte). A total of 2.5 μL MTHFD2 was preincubated with compound or DMSO for 10 min. The enzymatic reaction was initiated by adding 2.5 μL folitixorin (F680350, Toronto Research Chemicals). For background control, 5 μL buffer was added to the well. […] The final concentrations of all reagents in a total assay volume of 5 μL per well were 50 mmol/L Tris-HCl at pH 8.0, 100 mmol/L NaCl, 5 mmol/L MgCl2, 25 mmol/L Na3PO4 at pH 8.0, 0.005% (v/v) Tween-20, and 2 mmol/L 2-mercaptoethanol. After 15 min reaction time, 5 μL NAD(P)H-Glo detection reagent (G9061 or G9062, Promega) was dispensed in all wells and the plate was incubated for 60 min. Luminescence was measured on a plate reader (Envision, PerkinElmer or Sense, Hidex). The light signal produced is proportional to the amount of NAD(P)H in the sample. IC50 values were determined by fitting a four parameter sigmoidal curve model using XLfit (IDBS). Reported IC50 values are the mean of at least 3 independent measurements.

[3] = tested on: colorectal cancer patient-derived xenograft; details: colorectal cancer patient-derived xenograft mouse models; Ju et al. (2019); cited from earlier work
[4] = target: T1, MTHFD2; details: Fu et al. Nat. Commun. (2017); cited from earlier work

T1 sequence (P13995 36-350): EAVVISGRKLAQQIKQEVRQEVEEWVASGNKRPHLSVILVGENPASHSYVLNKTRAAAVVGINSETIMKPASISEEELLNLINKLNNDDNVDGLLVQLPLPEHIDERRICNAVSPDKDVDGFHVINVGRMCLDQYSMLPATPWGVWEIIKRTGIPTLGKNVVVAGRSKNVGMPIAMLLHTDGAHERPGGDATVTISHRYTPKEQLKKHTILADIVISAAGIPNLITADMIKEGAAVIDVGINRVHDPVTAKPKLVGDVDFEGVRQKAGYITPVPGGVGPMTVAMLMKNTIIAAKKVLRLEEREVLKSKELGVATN

| EC50 [1] | IC50 [2] | SMILES | tumor growth [3] | tumor weight [3] | inhibitor of human MTHFD2 [4] |
| --- | --- | --- | --- | --- | --- |
| 835 nM | 43 nM | Nc1nc(N)c(NC(=O)Nc2ccc(C(=O)N[C@@H](CCC(=O)N[C@@H](CCC(=O)O)C(=O)O)C(=O)O)nc2)c(=O)[nH]1 [Example 23, (2S)-2-[(4S)-4-carboxy-4-[(5-{[(2,4-diamino-6-oxo-1,6-dihydropyrimidin-5-yl)carbamoyl]amino}pyridin-2-yl)formamido]butanamido]pentanedioic acid] |  |  |  |
| 2 nM | 3 nM | Nc1nc(N)c(NC(=O)Nc2cnc(C(=O)N[C@@H](CCc3nnn[nH]3)C(=O)O)c(F)c2)c(=O)[nH]1 [Example 24, (2S)-2-[(5-{[(2,4-diamino-6-oxo-1,6-dihydropyrimidin-5-yl)carbamoyl]amino}-3-fluoropyridin-2-yl)formamido]-4-(1H-1,2,3,4-tetrazol-5-yl)butanoic acid] |  |  |  |
| 1940 nM | 30 nM | Nc1nc(N)c(NC(=O)Nc2ccc(C(=O)N[C@@H](CCC(=O)N[C@H](CCC(=O)O)C(=O)O)C(=O)O)nc2)c(=O)[nH]1 [Example 25, (2R)-2-[(4S)-4-carboxy-4-[(5-{[(2,4-diamino-6-oxo-1,6-dihydropyrimidin-5-yl)carbamoyl]amino}pyridin-2-yl)formamido]butanamido]pentanedioic acid] |  |  |  |
| 6190 nM | 14 nM | Nc1nc(N)c(CC(=O)Nc2ccc(C(=O)N[C@@H](CCC(=O)O)C(=O)O)nc2Oc2ccccc2)c(=O)[nH]1 [Example 26, (2S)-2-((5-[2-(2,4-diamino-6-oxo-1,6-dihydropyrimidin-5-yl)acetamido]-6-phenoxypyridin-2-yl)formamido)pentanedioic acid] |  |  |  |
| 2770 nM | 65 nM | Nc1nc(N)c(CC(=O)Nc2ccc(C(=O)N[C@@H](CCC(=O)O)C(=O)O)nc2-c2ccccc2)c(=O)[nH]1 [Example 27, (2S)-2-((5-[2-(2,4-diamino-6-oxo-1,6-dihydropyrimidin-5-yl)acetamido]-6-phenylpyridin-2-yl)formamido)pentanedioic acid] |  |  |  |
| 22 nM | 92 nM | Nc1nc(N)c(CC(=O)Nc2ccc(C(=O)N[C@@H](CCC(=O)N[C@@H](CCC(=O)O)C(=O)O)C(=O)O)nc2)c(=O)[nH]1 [Example 28, (2S)-2-[(4S)-4-carboxy-4-({5-[2-(2,4-diamino-6-oxo-1,6-dihydropyrimidin-5-yl)acetamido]pyridin-2-yl}formamido)butanamido]pentanedioic acid] |  |  |  |
| 1120 nM | 44 nM | COc1nc(C(=O)N[C@@H](CCC(=O)O)C(=O)O)ccc1NC(=O)Cc1c(N)nc(N)[nH]c1=O [Example 29, (2S)-2-({5-[2-(2,4-diamino-6-oxo-1,6-dihydropyrimidin-5-yl)acetamido]-6-methoxypyridin-2-yl}formamido)pentanedioic acid] |  |  |  |
| 161 nM | 1100 nM | Nc1nc(N)c(CC(=O)Nc2cnc(C(=O)N[C@@H](CCC(=O)O)C(=O)O)c(C(F)(F)F)c2)c(=O)[nH]1 [Example 30, (2S)-2-((5-[2-(2,4-diamino-6-oxo-1,6-dihydropyrimidin-5-yl)acetamido]-3-(trifluoromethyl)pyridin-2-yl)formamido)pentanedioic acid] |  |  |  |
| 20 nM | 8 nM | CC(C)[C@H](NC(=O)c1ncc(NC(=O)Nc2c(N)nc(N)[nH]c2=O)cc1F)C(=O)O [Example 31, (2S)-2-[(5-{[(2,4-diamino-6-oxo-1,6-dihydropyrimidin-5-yl)carbamoyl]amino}-3-fluoropyridin-2-yl)formamido]-3-methylbutanoic acid] |  |  |  |
| 10 nM | 13 nM | Nc1nc(N)c(CC(=O)Nc2cnc(C(=O)N[C@@H](CCc3nnn[nH]3)C(=O)O)c(F)c2)c(=O)[nH]1 [Example 32, (2S)-2-((5-[2-(2,4-diamino-6-oxo-1,6-dihydropyrimidin-5-yl)acetamido]-3-fluoropyridin-2-yl)formamido)-4-(1H-1,2,3,4-tetrazol-5-yl)butanoic acid] |  |  |  |
| 24 nM | 92 nM | Nc1nc(N)c(CC(=O)Nc2cnc(C(=O)N[C@@H](Cc3ccccc3)C(=O)O)c(F)c2)c(=O)[nH]1 [Example 33, (2S)-2-((5-[2-(2,4-diamino-6-oxo-1,6-dihydropyrimidin-5-yl)acetamido]-3-fluoropyridin-2-yl)formamido)-3-phenylpropanoic acid] |  |  |  |
| 177 nM | 60 nM | CC(C)[C@H](NC(=O)c1ncc(NC(=O)Cc2c(N)nc(N)[nH]c2=O)cc1F)C(=O)O [Example 34, (2S)-2-((5-[2-(2,4-diamino-6-oxo-1,6-dihydropyrimidin-5-yl)acetamido]-3-fluoropyridin-2-yl)formamido)-3-methylbutanoic acid] |  |  |  |
| 20 nM | 5 nM | Nc1nc(N)c(NC(=O)Nc2cnc(C(=O)N[C@@H](Cc3ccccc3)C(=O)O)c(F)c2)c(=O)[nH]1 [Example 35, (2S)-2-[(5-{[(2,4-diamino-6-oxo-1,6-dihydropyrimidin-5-yl)carbamoyl]amino}-3-fluoropyridin-2-yl)formamido]-3-phenylpropanoic acid] |  |  |  |
|  |  | Nc1nc2c(c(=O)[nH]1)N1C(=O)N(c3ccc(C(=O)N[C@@H](CCC(=O)O)C(=O)O)cc3)CC1CN2 (some centres unmarked) [LY345899] | statistically significantly suppresses tumor growth | decreases tumor weight |  |
|  |  | CO[C@H](CC(=O)O)[C@@H](C)C(=O)[C@H](C)/C=C(\C)[C@H]1OC(=O)[C@H](O)[C@H](O)/C=C/[C@H](C)CCC[C@@H]1C [carolacton] |  |  | nanomolar inhibitor |
